What was measured:
[1] = biological target: T1, myosin II (Dictyostelium discoideum, UniProt P08799, T1823D/T1833D/T2029D); assay: Myosin II cortical localization by SIM, TIRF and confocal imaging; format: cell-based; conditions: myoII null cells, 500 nM, 10 minutes post-treatment
T1 construct: expressed in transfected cells; host or cells: Dictyostelium discoideum myoII null cells rescued with GFP-myosin II
Procedure: (§1) Micropipette aspiration was used for cortical tension and creep response measurements. Confocal imaging was performed on a Zeiss 510 Meta with a 63× (numerical aperture [NA] 1.4) objective (Carl Zeiss, Jena, Germany). Epifluorescence and TIRF imaging was performed in a 22° C. temperature controlled room with an Olympus IX81 microscope using a 40× (NA 1.3) or 60× (NA 1.49) objective and a 1.4× optovar (Olympus, Center Valley, Pa.), as previously described. Image analysis was performed with ImageJ (rsb.info.nih.gov/ij).
(§2) Imaging conditions during primary screen are described above. All other image analysis was performed as previously described (Kee Y S, et al., 2012). Cells were transferred from Petri dishes (with 0.1% DMSO incubation in growth media of 4 hrs) to imaging chambers and allowed to adhere for 20 min in growth media with 0.1% DMSO. After the cells adhered, the growth media was replaced with 2-(N-morpholino)ethanesulfonic acid (MES) starvation buffer (50 mM MES, pH 6.8, 2 mM MgCl2, 0.2 mM CaCl2) with 0.1% DMS. Confocal imaging was performed on aZeiss 510 Meta with a 63× (numerical aperture [NA] 1.4) objective (Carl Zeiss, Jena, Germany). Epifluorescence and TIR imaging was performed in a 22° C. temperature controlled room with an Olympus IX81 microscope using a 40× (NA 1.3) or 60× (NA […]) objective and a 1.4× optovar (Olympus, Center Valley, Pa.), as previously described. Image analysis was performed with ImageJ (rsb.info.nih.gov/ij). Many data sets were independently analyzed by multiple investigators.

[2] = biological target: T2, myosin II (Dictyostelium discoideum, UniProt P08799, T1823A/T1833A/T2029A); assay: as above; format: cell-based; conditions: myoII null cells, 500 nM, 10 minutes post-treatment
T2 construct: expressed in transfected cells; host or cells: Dictyostelium discoideum myoII null cells rescued with GFP-myosin II
T2 sequence (P08799 whole entry T1823A/T1833A/T2029A): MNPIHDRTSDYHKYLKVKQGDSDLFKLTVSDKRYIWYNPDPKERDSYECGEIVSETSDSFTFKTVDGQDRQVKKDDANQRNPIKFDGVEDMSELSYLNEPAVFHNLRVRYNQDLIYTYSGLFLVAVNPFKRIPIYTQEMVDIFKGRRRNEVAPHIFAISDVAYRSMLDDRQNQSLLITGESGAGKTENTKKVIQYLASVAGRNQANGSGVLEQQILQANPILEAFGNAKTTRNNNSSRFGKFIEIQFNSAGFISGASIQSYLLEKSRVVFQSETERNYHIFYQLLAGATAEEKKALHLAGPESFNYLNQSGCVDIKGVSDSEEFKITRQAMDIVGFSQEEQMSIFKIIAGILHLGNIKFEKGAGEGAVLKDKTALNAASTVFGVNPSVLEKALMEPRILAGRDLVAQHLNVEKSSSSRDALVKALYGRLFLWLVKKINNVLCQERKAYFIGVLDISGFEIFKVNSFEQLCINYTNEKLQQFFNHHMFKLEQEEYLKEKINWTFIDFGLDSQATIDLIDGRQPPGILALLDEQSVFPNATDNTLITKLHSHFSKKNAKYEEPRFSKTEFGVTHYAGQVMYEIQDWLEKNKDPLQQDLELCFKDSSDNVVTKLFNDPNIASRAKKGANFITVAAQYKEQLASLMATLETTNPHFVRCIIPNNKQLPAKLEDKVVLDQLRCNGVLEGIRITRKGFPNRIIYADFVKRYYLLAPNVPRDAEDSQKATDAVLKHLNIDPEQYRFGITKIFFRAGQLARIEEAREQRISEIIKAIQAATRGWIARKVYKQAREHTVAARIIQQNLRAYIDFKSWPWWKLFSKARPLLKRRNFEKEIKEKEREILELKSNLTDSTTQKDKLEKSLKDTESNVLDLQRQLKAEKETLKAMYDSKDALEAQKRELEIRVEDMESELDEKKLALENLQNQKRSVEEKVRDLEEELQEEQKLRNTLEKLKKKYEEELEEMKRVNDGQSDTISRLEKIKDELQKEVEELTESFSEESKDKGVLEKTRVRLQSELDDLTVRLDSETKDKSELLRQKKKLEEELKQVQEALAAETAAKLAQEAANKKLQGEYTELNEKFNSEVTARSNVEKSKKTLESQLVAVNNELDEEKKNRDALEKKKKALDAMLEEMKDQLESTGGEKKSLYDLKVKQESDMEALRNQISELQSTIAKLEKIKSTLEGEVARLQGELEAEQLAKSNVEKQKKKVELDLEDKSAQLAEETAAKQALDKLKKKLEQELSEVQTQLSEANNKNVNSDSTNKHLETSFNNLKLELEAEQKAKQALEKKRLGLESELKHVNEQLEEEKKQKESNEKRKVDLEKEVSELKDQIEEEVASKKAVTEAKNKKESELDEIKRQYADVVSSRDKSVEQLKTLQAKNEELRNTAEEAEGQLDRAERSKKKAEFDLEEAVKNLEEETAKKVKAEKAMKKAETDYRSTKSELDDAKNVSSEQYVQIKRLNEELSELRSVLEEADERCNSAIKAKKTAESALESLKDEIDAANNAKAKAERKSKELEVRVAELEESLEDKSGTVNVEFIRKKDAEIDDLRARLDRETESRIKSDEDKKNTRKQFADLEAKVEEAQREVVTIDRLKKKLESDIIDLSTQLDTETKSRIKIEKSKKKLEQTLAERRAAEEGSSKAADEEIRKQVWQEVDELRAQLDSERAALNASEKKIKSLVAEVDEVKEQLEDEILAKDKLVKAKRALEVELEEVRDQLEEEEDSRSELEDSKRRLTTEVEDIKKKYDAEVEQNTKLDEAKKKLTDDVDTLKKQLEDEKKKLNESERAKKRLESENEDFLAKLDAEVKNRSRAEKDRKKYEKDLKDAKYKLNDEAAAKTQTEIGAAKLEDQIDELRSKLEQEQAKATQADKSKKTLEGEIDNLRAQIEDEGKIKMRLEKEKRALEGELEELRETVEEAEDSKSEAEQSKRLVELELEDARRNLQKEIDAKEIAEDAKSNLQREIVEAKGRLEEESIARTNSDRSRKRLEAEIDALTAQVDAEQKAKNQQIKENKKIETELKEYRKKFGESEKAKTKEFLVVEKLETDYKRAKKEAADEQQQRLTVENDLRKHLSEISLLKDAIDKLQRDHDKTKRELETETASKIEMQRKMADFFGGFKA
Procedure: as §1, §2

[3] = test system: myosin II; assay: as above; format: cell-based, Dictyostelium discoideum; conditions: myoII null cells
Procedure: as §1, §2

[4] = biological target: T3, myosin II (Dictyostelium discoideum, UniProt P08799, S456L); assay: as above; format: cell-based; conditions: myoII null cells, time course beyond one hour
T3 construct: expressed in transfected cells; host or cells: Dictyostelium discoideum myoII null cells rescued with GFP-myosin II
T3 sequence (P08799 whole entry S456L): as the sequence (P08799 whole entry T1823A/T1833A/T2029A) above, with S456L, A1823T, A1833T, A2029T counted along it
Procedure: as §1, §2

[5] = test system: HEK293 cells; assay: Micropipette aspiration creep test; format: cell-based, human; conditions: 500 nM, 1 hr, 0.15 nN/μm^2
Procedure: (§3) The instrumental and experimental setups have been previously described (Effler J C, et al., 2006; Kee Y-S, et al., 2013). Micropipette aspiration assays were all carried out in growth media with 0.1% DMSO. For cortical tension measurements of Dictyostelium cells, pressure was applied to the cell cortex with a micropipette (2-3 m radius, Rp) to the equilibrium pressure (ΔP) where the length of the cell inside the pipette (Lp) was equal to Rp. The effective cortical tension (Teff) was calculated by applying the Young-Laplace equation: ΔP=2Teff(1/Rp-1/Rc), where Rc is the radius of the cell and ΔP is the equilibrium pressure when Lp=Rp (Derganc J, et al., 2000; Octtaviani E, et al., 2006). For creep tests on mammalian strains, a constant aspiration stress was applied over 60 s. The micropipette radius was 3.5-4.5 m. For quantification, the Lp/Rp ratio values was measured every two seconds and plotted as a function of time. A10.7 and HEK293 cells could only be aspirated at a low pressure range (0.15 nN/μm^2), while HPDE, ASPC-1, and HL-60 cells could be aspirated at higher pressure ranges (0.25 nN/μm^2) because they were stiffer.

[6] = test system: ASPC-1 cells; assay: Micropipette aspiration creep test; format: cell-based, human; conditions: 500 nM, 1 hr, 0.25 nN/μm^2
Procedure: as §3

[7] = test system: AsPC-1 cells; assay: Hemi-splenectomy PDAC liver metastasis model; format: in vivo, athymic NCr-nu/nu mice; conditions: 5 mg/ml, 200 μl IP every other day
Procedure: Therefore, the inventors tested 4-HAP in a mouse model for PDAC metastasis. Hemi-splenectomies with 4-HAP pre-treated metastatic AsPC-1 cells were performed on nude mice which were subsequently divided into three groups: control, PBS (200 μl PBS IP injections, every other day), and 4-HAP (5 mg/ml, 200 μl IP injections, every other day). Mice were harvested at 5-weeks post-surgery, when the first mouse expired. Metastasis to the liver was observed and quantified by an in-house Matlab script that determined surface area tumor coverage.
Hemi-splenectomies were performed on athymic NCr-nu/nu mice (Charles River Laboratories) with low passage AsPC-1 cells as previously described. In short, laparotomies were performed on anesthetized mice in which the upper pole of a divided spleen was reinserted into the peritoneum while 1×10^7 AsPC-1 cells prepared in phosphate buffered saline were injected into the lower splenic pole, chased by an equal volume of phosphate buffered saline. The pancreas and splenic vessels were ligated and the peritoneum was closed.
AsPC-1 cells were pretreated with 50 μM 4-HAP or PBS 24 hr prior to injection during hemisplenectomies. […]
Quantifications of mouse livers were performed using a custom-designed Matlab script. […] The percent coverage of tumor was calculated.

[8] = test system: Panc10.05 cells; assay: Micropipette aspiration effective cortical tension (Teff), knockdown lines; format: cell-based, human
Procedure: The instrumental and experimental setups have been described previously. MPA assays and RT-DC measurements were all carried out in growth media for cortical tension measurements or Leibovitz L-15 media (Gibco) when fluorescence was quantified.
Pressure was applied to the cell cortex with a micropipette (6- to 8-μm radius; Rp) to the equilibrium pressure (ΔP), where the length of the cell inside the pipette (Lp) was equal to Rp. The effective cortical tension (Teff) was calculated by applying the Young-Laplace equation: ΔP=2Teff (1/Rp−1/Rc), where Rc is the radius of the cell and ΔP is the equilibrium pressure when Lp=Rp. Images were collected with an Olympus IX81 microscope equipped with MetaMorph software and analyzed using ImageJ (rsb.info.nih.gov/ij).

[9] = test system: HL-60 cells; assay: Micropipette aspiration cortical tension; format: cell-based, human; conditions: 500 nM, 1 hr
Procedure: as §3

T1 sequence (P08799 whole entry T1823D/T1833D/T2029D): as the sequence (P08799 whole entry T1823A/T1833A/T2029A) above, with A1823D, A1833D, A2029D counted along it

CC(=O)c1ccc(O)cc1 [4-HAP, 4-hydroxyacetophenone]
filament formation, GFP-3XAsp myosin [1]: generating more short filaments
filament formation, GFP-3XAla myosin [2]: increasing in filament length and intensity
myosin accumulation, GFP-S1 motor domain [3]: did not show an accumulation response
myosin accumulation, GFP-S456L myosin [4]: did not show a response to 4-HAP
deformability in creep test [5]: stiffens the soft HEK293 cells
deformability in creep test [6]: stiffens ASPC-1 cells, shifting them towards HPDE-like mechanics
tumor formation (liver weights and tumor coverage) [7]: reduction in tumor formation
reduction in surface tumor load (liver tumor coverage) ([7]; 5-weeks post-surgery): 50%
effective cortical tension ([8]; myosin IIA knockdown cells): increases the cortical tension in myosin IIA knockdown cells
effective cortical tension ([8]; myosin IIC knockdown cells): unchanged by 4-HAP challenge
effective cortical tension ([8]; sh-control cells, 500-nM): increases the cortical tension of sh-control cells
cortical tension [9]: does not alter the cortical tension

Reference: patent publication US11834401B2, “Treating and preventing diseases by modulating cell mechanics” (THE JOHNS HOPKINS UNIVERSITY, priority 2013, dated 2023)
